Values quoted from earlier work as cited in patent US20020035037A1, “CONTROL OF SCLEROTIUM CEPIVORUM IN ALLIUM PLANTS” (priority 1991, published 2002).

Tested on: Sclerotium cepivorum
Conditions: iprodione 125 g/kg seed as seed treatment; procymidon 4-6 kg/ha as soil treatment; particularly with heavy infestation

SMILES | effectiveness of control of Sclerotium cepivorum
CC(C)NC(=O)N1CC(=O)N(c2cc(Cl)cc(Cl)c2)C1=O [iprodione] | not effective
CC12CC1(C)C(=O)N(c1cc(Cl)cc(Cl)c1)C2=O (centres unmarked) [procymidon] | not effective
